{"source": "patent US11028127B2", "about": "“Peptides capable of reactivating p53 mutants” (Yeda Research and Development Co. Ltd., priority 2013, dated 2021)", "target": "T1, Mut-p53 (R175H p53) (Homo sapiens, UniProt P04637, R175H)", "T1 construct": "a hot spot full length mutant p53 Mut-p53 R175H (R175H p53); expressed in transfected cells; host or cells: H1299 (p53-null) cells stably overexpressing R175H p53; cell extract", "experiment": "Sandwich ELISA for p53 conformation (PAb1620/PAb240 reactivity)", "type": "biochemical", "procedure": "To measure the conformational effect of the peptides on Mut-p53, a micro-titer plate was coated with either PAb240, PAb1620 or pAb421 (as a positive control and standard for total p53 protein, since the antibody used recognizes both WT and mutant conformations), overnight incubated, washed, blocked, and cell extracts (with or without peptides) were added for an additional 2 hours. After removal of extracts, plates were washed and incubated with the αp53-HRP conjugated Ab for the detection of p53 levels. A TMB (substrate of HRP) assay was performed and optical density was determined at 450 nm. WT p53 served as a positive control for reactivity with PAb1620, and Mut-p53 served as a negative control. The results are presented as the ratio of absorbance between the PAb1620 or PAb240 samples and the control […] sample. MCF7 and H1299-Mut-p53 (ts) A135V (TS) cells were used as positive controls for the WT p53 conformation (1620/240 ratio equals or exceeds 5:1).\n96-well plates were coated using 3 different antibodies (1 type of antibody (Ab) in each well): PAb421 recognizes both conformations of p53 and binds to a C-terminus epitope; PAb240 recognizes mutant conformation of p53, binds to epitope within the core domain (amino acids 212-217) (Stephen, C. W. and D. P. Lane, Mutant conformation of p53. Precise epitope mapping using a filamentous phage epitope library. J. Mol. Biol., 1992. 225(3): p. 577-83) which is accessible to the Ab when the protein is partially denatured (for example, when the DBD is mutated); and PAb1620, which recognizes WT conformation of p53, binds to epitope with in the core domain (aa 156, 206-210), formed when folding is in WT conformation (Wang, P. L., F. Salt, and G. Winter, The ‘wild type’ conformation of p53: epitope mapping using hybrid proteins. Oncogene, 2001. 20(18): p. 2318-24).\nWells were incubated overnight (ON) with 100 μl Ab (5 μg/ml) in room temp (RT). The liquid was discarded, and the wells were washed 3 times with Phosphate buffered saline (PBS), 200 μl per each wash. Next, blocking with 200 μl of 5% bovine serum albumin (BSA) diluted in PBS in each well for 1.5 hours at room temperature (RT) was performed. Blocking buffer was discarded, followed by 3 washes in PBS as described above. Samples of mutant and WT p53 proteins (100 μl, 10 μg/ml), together with control peptides pCAP-710 (LPNPPER, SEQ ID NO:328) and pCAP-1220 ([…], SEQ ID NO:368) (5 μg/ml, Sigma Aldrich, or with test peptides 1-153 (5 μg/ml), were incubated for 1.5 hours together, and then added to the wells. Samples were rotated and incubated for 1 hour at RT. Samples were discarded, following 4 washes as described above, using Trisphosphate buffered saline (TPBS). Next, horseradish peroxidase (HRP) conjugated streptavidin p53 antibody (10 μg/ml HAF1355 (R&D)) was added to the wells and incubated at RT for 1 hour. After the plate was washed 3 times in TPBS, TMB substrate solution (50 μl each well, Thermo, (Cat. No. ES001-1L-K)) was added and incubated at 37° c. for 20 min. The reaction was stopped with 2M sulfuric acid (50 μl). The absorbance was measured at 450 nm with a spectrophotometer. Protein concentration was determined by dividing the absorbencies of each sample to the absorbance of Ab 421 samples.\nThe first screening strategy was based on ELISA. A version of sandwich ELISA was used to examine the effect of the lead test peptides on p53 conformation. To measure the conformational effect of the peptides on Mut-p53, a micro-titer plate was coated with PAb240, PAb1620 or pAb421 (as a positive control), and then the reactivity of p53 to these antibodies was examined. WT p53 served as a positive control for reactivity with PAb1620, and Mut-p53 served as a negative control. To examine the effect of a tested peptide it was added to a solution containing Mut-p53 and change in reactivity to either Ab was tested. […] Several ELISA experiments using different cell extracts were performed. […]", "data": [{"sequence": "YRRLLIGMMWRRRRRRRRRRR [pCAP-68]", "values": [{"measurement": "effect on Mut-p53 conformation (conformational change)", "result": "significant shift in Mut-p53 conformation towards PAb1620"}, {"measurement": "reactivity of R175H Mut-p53 towards PAb1620 and PAb240 (conformational change)", "setting": "extract of H1299 cells overexpressing R175H p53, peptide 50 ng/ml, 2 hours", "result": "increased reactivity of R175H Mut-p53 towards PAb1620 and decreased reactivity towards PAb240"}]}]}
